{"source": "ChEMBL document CHEMBL1629543", "about": "“Recovery of humoral immunity is critical for successful antiviral therapy in disseminated mouse adenovirus type 1 infection” (Antimicrob Agents Chemother, 2008)", "key": {"Murine adenovirus 1": {"tested_on": "Murine adenovirus 1", "settings": "Liver, 100 mg/kg", "description": "Antiviral activity against MAV-1 infected in immunocompromized BALB/c mouse assessed as decrease in viral DNA load in liver at 100 mg/kg, ip treated 8 days before infection measured after 28 days post infection by RT-PCR"}, "Mus musculus [1]": {"species_on_record": "Mus musculus", "settings": "BALB/c, 100 mg/kg", "description": "Immunosuppressive activity against MAV-1 infected BALB/c mouse assessed as inhibition of production of protective antibodies at 100 mg/kg, ip treated 8 days before infection for 3 weeks measured after 62 days postinfection"}, "Mus musculus [2]": {"species_on_record": "Mus musculus", "settings": "BALB/c, 100 mg/kg", "remark": "listed apart in the source", "description": "Immunosuppressive activity against MAV-1 infected BALB/c mouse assessed as inhibition of production of protective antibodies at 100 mg/kg, ip treated 8 days before infection for 2 weeks measured after 62 days postinfection"}, "Mus musculus [3]": {"species_on_record": "Mus musculus", "settings": "BALB/c, T-cell, 100 mg/kg", "description": "Immunosuppressive activity against MAV-1 infected BALB/c mouse assessed as T cells suppression at 100 mg/kg, ip treated 8 days before infection for 4 weeks measured 14 days post infection by flow cytometry"}}, "note": "The source made the active and inactive calls. No cut-off for these calls is given here.", "data": [{"smiles": "O=P1(N(CCCl)CCCl)NCCCO1", "note": "(centres undefined)", "values": [{"measurement": "inhibition", "setting": "Murine adenovirus 1", "value": "Active"}, {"measurement": "inhibition", "setting": "Mus musculus [1]", "value": "inactive"}, {"measurement": "inhibition", "setting": "Mus musculus [2]", "value": "Active"}, {"measurement": "inhibition", "setting": "Mus musculus [3]", "value": "Active"}]}]}
